We go through one molecule from PMC9798004 (Frontiers in Psychiatry, 2022).

Like-named read-outs stand apart in the source and are kept apart here. Some results are limits rather than exact numbers.

In series [1] the target is HRH2 (Homo sapiens, UniProt P25021). The series is described as follows: PathHunter β-arrestin assay. The format is cell-based. Particulars: antagonist mode vs EC80 of control agonist, 10-point curve.
In series [2] the test system is AtT20 cells expressing human CB1 (hCB1). The series is described as follows: LDH release cytotoxicity assay. It counts as cell-based. Particulars: 30 μM. As for the experimental part:
AtT20 cells expressing either human CB1 (hCB1) or CB2 (hCB2) receptors or wildtype (WT) were grown to confluence in T75 cm^2 flasks in Dulbecco's modified eagle medium containing 10% fetal bovine serum, 100 U penicillin/streptomycin, and 80 μg/mL hygromicyin (Sigma-Aldrich/Merck; Castle Hill, NSW, Australia). Cells were plated in 96-well-microplates at 30,000 cells per well and allowed to adhere overnight in 5% CO2. The following morning, cells were treated with either vehicle (0.1% DMSO; negative control), 30 μM Δ^9-THC, or 30 μM AMB-FUBINACA. At 1 or 6 h, the amount of lactate dehydrogenase in the cell media was tested, and compared with positive control (lysed cells) as per manufacturer's instructions (Dojindo Molecular Technologies, Inc.; Rockville, MD, USA), with readings performed on a Clariostar Plus plate reader (BMG Labtech, Mornington, VIC, Australia). Experiments were performed in triplicate. In order to measure any accumulating LDH, media was not changed after initial incubation. Data is represented as means ± S.E.M. A two-way ANOVA with was performed on the data at each time point, with Tukey's multiple comparison test (α = 0.05). A p < 0.05 was considered statistically significant.
In general terms: Release of lactate dehydrogenase indicates damage to the cell membrane.

Series [3] has as its target T1, ADRA2C (Homo sapiens, UniProt P18825).
T1 sequence (P18825 1-462): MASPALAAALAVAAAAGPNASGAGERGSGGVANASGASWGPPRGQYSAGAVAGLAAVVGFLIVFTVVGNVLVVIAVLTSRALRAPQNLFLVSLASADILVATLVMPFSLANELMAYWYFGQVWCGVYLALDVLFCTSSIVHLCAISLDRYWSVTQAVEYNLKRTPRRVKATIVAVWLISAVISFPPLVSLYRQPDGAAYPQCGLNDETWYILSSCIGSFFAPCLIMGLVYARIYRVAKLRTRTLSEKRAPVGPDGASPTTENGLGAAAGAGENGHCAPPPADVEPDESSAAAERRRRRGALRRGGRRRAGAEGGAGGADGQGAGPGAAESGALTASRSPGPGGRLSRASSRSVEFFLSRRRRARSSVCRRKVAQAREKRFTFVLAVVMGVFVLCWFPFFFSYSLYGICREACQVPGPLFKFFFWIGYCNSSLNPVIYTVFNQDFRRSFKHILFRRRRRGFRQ
The series is described as follows: PathHunter β-arrestin assay. The format is cell-based.

The test system of series [4] is GPCR off-targets with >5-fold difference in S/N and CoV (n = 36). The series is described as follows: Follow-up concentration-response β-arrestin assays, panel of hits. It counts as cell-based. As for the experimental part:
Follow up experiments were prioritized based on the difference between S/N and CoV. Targets with a >5-fold difference between S/N and CoV were investigated for their potential contribution to the AMB-FUBINACA toxidrome with 10-point concentration-response curves generated in technical replicate (range 1.5–30 μM) using the EC80 of the relevant agonist, where applicable in antagonist mode. Simultaneous agonist and antagonist curves were run in parallel to ensure reliability of the assay (see Supplementary Table 2), with both RC50 and signal to background aligning with historical averages, and Z' >0.5. RC50 was estimated using a four-parameter fit (CBIS Data Analysis Suite, ChemInnovation, San Diego, CA) on normalized data.

The target of series [5] is T2, CNR1 (CB1) (Homo sapiens, UniProt P21554).
T2 construct: host or cells: CHO
T2 sequence (P21554 whole entry): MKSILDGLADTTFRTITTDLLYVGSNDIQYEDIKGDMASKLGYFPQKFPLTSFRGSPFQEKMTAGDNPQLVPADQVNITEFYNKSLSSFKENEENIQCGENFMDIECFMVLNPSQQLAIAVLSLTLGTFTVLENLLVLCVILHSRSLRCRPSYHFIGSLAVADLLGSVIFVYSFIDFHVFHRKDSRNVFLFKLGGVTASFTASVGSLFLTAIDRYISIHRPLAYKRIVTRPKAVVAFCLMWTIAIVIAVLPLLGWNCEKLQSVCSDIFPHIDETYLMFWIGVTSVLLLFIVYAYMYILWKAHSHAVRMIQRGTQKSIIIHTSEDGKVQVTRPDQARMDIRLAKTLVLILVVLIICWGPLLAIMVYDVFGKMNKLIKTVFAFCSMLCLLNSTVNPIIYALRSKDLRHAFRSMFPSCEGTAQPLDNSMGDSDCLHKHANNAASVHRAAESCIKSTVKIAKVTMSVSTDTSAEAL
The series is described as follows: PathHunter β-arrestin assay. Particulars: agonist mode. The format is cell-based.

In series [6] the target is T3, CCR4 (Homo sapiens, UniProt P51679).
T3 sequence (P51679 1-360): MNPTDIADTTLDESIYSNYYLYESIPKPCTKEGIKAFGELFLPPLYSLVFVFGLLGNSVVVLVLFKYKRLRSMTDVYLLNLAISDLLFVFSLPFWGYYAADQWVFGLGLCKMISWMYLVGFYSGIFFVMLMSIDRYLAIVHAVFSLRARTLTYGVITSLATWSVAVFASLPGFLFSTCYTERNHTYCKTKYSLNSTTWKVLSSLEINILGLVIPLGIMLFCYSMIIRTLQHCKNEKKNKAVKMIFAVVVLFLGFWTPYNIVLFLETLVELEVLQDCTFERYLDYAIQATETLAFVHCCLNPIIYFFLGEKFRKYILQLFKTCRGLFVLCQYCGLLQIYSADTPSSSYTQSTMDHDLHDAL
The series is described as follows: PathHunter β-arrestin assay. The format is cell-based. Particulars: antagonist mode vs EC80 of control agonist, 10-point curve.

Series [7] addresses T4, GPR119 (Homo sapiens, UniProt Q8TDV5).
T4 construct: purchased Eurofins DiscoverX (PathHunter gpcrMAX)
T4 sequence (Q8TDV5 1-335): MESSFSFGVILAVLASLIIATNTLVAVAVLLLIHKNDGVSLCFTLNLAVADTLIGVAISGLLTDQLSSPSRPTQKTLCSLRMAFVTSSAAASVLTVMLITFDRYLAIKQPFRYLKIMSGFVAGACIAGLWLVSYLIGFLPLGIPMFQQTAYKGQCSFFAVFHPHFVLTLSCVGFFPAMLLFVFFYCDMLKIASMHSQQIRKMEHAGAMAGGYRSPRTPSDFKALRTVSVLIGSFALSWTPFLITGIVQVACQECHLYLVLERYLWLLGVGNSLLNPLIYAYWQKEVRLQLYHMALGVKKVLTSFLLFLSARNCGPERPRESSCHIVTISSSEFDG
The series is described as follows: PathHunter β-arrestin assay. The format is cell-based. Particulars: antagonist mode, 30 μM.

For series [8], the target named is T5, GALR2 (Homo sapiens, UniProt O43603).
T5 construct: purchased Eurofins DiscoverX (PathHunter gpcrMAX)
T5 sequence (O43603 whole entry): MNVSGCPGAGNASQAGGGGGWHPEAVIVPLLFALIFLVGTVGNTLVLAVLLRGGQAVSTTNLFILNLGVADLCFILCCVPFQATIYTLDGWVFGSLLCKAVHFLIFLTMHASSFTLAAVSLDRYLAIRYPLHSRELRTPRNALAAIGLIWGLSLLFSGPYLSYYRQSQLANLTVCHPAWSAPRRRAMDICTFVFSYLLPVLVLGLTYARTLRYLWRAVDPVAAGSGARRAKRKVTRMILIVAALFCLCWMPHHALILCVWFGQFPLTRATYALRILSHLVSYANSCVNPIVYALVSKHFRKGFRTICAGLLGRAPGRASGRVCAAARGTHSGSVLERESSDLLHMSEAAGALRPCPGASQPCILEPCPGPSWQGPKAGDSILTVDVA
Briefly: PathHunter β-arrestin assay. The format is cell-based. Particulars: antagonist mode, up to 30 μM.

The target in series [9] is T6, ADRA2A (Homo sapiens, UniProt P08913).
T6 construct: host or cells: CHO
T6 sequence (P08913 whole entry): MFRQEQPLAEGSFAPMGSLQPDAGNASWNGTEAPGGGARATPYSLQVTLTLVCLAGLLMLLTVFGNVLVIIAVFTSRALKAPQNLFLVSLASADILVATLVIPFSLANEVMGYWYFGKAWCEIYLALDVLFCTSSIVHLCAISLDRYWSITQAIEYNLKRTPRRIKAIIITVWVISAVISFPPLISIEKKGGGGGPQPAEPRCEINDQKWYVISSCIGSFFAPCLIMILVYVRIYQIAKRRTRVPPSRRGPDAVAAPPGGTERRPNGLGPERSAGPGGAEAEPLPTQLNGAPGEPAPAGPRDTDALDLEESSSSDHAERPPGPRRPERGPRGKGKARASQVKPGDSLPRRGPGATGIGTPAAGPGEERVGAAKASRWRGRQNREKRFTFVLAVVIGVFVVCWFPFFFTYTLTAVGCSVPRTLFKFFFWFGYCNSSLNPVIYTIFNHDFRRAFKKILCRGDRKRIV
Briefly: PathHunter β-arrestin assay. The format is cell-based. Particulars: antagonist mode vs EC80 of control agonist, 10-point curve.

The target in series [10] is T7, GALR1 (Homo sapiens, UniProt P47211).
T7 construct: purchased Eurofins DiscoverX (PathHunter gpcrMAX)
T7 sequence (P47211 whole entry): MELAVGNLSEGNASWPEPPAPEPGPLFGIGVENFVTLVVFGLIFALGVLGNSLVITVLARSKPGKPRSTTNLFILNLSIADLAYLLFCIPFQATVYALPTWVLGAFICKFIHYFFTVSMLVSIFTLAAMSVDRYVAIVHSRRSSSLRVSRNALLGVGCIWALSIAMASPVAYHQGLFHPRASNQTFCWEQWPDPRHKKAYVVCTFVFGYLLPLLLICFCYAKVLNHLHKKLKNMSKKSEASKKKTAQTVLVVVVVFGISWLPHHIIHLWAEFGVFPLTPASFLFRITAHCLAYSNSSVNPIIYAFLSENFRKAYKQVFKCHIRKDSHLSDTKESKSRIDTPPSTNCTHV
The series is described as follows: PathHunter β-arrestin assay. It counts as cell-based. The following applies: antagonist mode, up to 30 μM.

Series [11] has as its system CB1. The arrangement: method as in PMID 31513380. The following applies: 10 μM; cited from earlier work.
Series [12] deals with OXTR (Homo sapiens, UniProt P30559). Briefly: PathHunter β-arrestin assay. It counts as cell-based. The following applies: antagonist mode vs EC80 of control agonist, 10-point curve.
Sequence of OXTR (P30559 whole entry): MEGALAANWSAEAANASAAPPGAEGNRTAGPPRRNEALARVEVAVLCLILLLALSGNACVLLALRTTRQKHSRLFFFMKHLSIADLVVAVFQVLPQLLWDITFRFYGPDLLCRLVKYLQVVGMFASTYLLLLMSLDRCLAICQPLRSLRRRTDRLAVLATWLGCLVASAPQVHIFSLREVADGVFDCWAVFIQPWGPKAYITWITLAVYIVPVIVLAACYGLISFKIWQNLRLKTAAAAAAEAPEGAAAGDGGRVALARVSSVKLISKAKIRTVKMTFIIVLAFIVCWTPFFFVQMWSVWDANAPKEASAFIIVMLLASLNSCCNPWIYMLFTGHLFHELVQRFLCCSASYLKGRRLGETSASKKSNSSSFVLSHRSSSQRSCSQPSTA
The target in series [13] is CALCR-RAMP2 (Homo sapiens, UniProt O60895+P30988). The series is described as follows: PathHunter β-arrestin assay. The format is cell-based. Particulars: antagonist mode vs EC80 of control agonist, 10-point curve.
Sequence of CALCR-RAMP2 (P30988 25-474): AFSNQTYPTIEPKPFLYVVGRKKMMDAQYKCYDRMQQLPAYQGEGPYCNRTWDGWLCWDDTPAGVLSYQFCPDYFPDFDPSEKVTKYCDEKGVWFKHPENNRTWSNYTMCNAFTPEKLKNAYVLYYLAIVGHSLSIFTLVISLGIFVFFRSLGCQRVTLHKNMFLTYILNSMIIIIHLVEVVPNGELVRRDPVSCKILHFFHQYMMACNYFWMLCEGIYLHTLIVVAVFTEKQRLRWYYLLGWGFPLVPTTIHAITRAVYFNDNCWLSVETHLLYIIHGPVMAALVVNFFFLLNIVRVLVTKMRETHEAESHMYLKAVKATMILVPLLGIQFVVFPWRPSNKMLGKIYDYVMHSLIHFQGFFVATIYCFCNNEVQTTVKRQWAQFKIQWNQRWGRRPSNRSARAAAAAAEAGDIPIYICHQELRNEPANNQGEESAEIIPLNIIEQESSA
Sequence of CALCR-RAMP2 (O60895 43-175 partner): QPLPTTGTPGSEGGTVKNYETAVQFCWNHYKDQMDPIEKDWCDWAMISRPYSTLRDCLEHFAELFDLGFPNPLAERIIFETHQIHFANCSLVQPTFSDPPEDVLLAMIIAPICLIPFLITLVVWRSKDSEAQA
The target of series [14] is T8, GIPR (Homo sapiens, UniProt P48546).
T8 construct: purchased Eurofins DiscoverX (PathHunter gpcrMAX)
T8 sequence (P48546 22-466): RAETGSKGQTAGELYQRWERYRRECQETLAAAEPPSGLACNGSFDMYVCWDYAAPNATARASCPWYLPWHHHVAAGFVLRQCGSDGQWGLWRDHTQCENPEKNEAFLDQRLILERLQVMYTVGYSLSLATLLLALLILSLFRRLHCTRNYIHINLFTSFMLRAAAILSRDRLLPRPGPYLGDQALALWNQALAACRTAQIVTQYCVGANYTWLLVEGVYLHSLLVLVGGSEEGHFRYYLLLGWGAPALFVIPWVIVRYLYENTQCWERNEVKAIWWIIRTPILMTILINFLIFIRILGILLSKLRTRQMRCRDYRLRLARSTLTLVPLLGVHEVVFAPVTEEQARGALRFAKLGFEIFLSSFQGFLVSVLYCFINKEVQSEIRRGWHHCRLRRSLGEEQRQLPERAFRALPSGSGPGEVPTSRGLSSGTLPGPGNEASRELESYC
The series is described as follows: PathHunter β-arrestin assay. The following applies: antagonist mode, up to 30 μM. It counts as cell-based.

Sequence of HRH2 (P25021 whole entry): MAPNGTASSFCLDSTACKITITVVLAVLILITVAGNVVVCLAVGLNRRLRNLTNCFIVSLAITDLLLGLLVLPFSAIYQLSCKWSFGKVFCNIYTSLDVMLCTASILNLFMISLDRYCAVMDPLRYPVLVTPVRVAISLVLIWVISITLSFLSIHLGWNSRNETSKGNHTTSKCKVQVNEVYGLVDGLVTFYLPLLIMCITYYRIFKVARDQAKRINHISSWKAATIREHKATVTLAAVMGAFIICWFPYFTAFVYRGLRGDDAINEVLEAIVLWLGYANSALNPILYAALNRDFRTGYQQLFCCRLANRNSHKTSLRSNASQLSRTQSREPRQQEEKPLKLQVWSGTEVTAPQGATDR

The term EC50 denotes the concentration at which the effect is half-maximal. Read a high EC50 as a need for much substance. With `COC(=O)[C@@H](NC(=O)c1nn(Cc2ccc(F)cc2)c2ccccc12)C(C)C` [AMB-FUBINACA], the IC50 was 13.1 µM in series [1]; 7.3 µM in series [3] (antagonist mode vs EC80 of control agonist, 10-point curve); above 1 µM in series [4] (antagonist mode (Figure 4), read-out: potencies at targets other than CB1); above 30 µM in [4] (antagonist mode vs EC80 agonist, concentrations up to 30 μM, read-out: IC50 at 12 receptors (Figure 5)); 11.5 µM in [6]; 12.1 µM in series [9]. The IC50 in series [12] was 12.8 µM; in series [13], 10.8 µM. For the same molecule, the “LDH in cell media, normalized to total LDH” value in series [2] (1 h) is 17.09 ± 7.03%. In series [2] (6 h), the “LDH increase compared with vehicle” value is recorded as “not observed”. Moreover, the “inhibitory activity at lower concentrations” value in [3] (antagonist mode, 1 μM) was “appreciable inhibitory activity”. The maximum inhibition in series [3] (antagonist mode, concentration-response up to 30 μM) was 63.11%. The “response of CB1-expressing cells at high concentration” value in series [5] (30 μM, response decreased above 1 μM) is “very little activity remaining at 30 μM”. In series [5] (data above 1 μM excluded from curve fitting), this molecule came in with an EC50 of 0.0426 µM. Besides, the “inhibition in single-point screen” value in [7] is given as “inhibited to the greatest extent of any antagonist mode target”. For the same molecule, the “inhibitory activity in concentration-response” value in [8] was “did not produce any clear activity”; in series [10], “Activity was only observed at the highest concentration (30 μM)”; in series [14], “Activity was only observed at the highest concentration (30 μM)”. Besides, the “time to peak β-arrestin-2 recruitment” value in [11] is on record as below 10 min.
